Test results as given in article PMC4875962 (Clinical Pharmacokinetics, 2015).
Entries after “also recorded” stand apart in the source; their conditions may differ. Like-named read-outs stand apart in the source and are kept apart here. Marks after values point to notes of the source that are not given here.

What was measured:
[1] = cited from earlier work
[2] = cited from earlier work; for dose–exposure relationship: oral doses 10–180 mg
[3] = 60 mg twice daily, elderly healthy subjects; cited from earlier work
OCT2 = conditions: cited from earlier work
OAT3 [4] = conditions: read-out: IC50, inhibitory effect on OAT3; cited from earlier work
P-glycoprotein (P-gp) = conditions: Caco-2 cell monolayers; cited from earlier work
[5] = Drug-drug interaction studies: effect on edoxaban pharmacokinetics; conditions: coadministration of high-dose aspirin (325 mg); data on file
[6] = cited from earlier work; remark: listed apart in the source
OAT3 [7] = conditions: cited from earlier work
OATP1B1 = conditions: cited from earlier work
Caco-2 cells = conditions: cited from earlier work
[8] = intravenous 30 mg, healthy subjects
[9] = single oral dose of edoxaban 60 mg, healthy subjects, mean ± SD

Structure (SMILES): CN1CCc2nc(C(=O)N[C@@H]3C[C@@H](C(=O)N(C)C)CC[C@@H]3NC(=O)C(=O)Nc3ccc(Cl)cn3)sc2C1 [edoxaban]
- increase of mean peak exposure (Cmax) in the fed state vs fasted state ([1]; 60 mg single dose): 6–22%
- increase of total exposure with food ([1]; 60 mg single dose): 12–15%
- effect of food on total exposure [1]: Coadministration with food does not affect total edoxaban exposure
- effect of age, sex and race on edoxaban pharmacokinetics ([2]; after renal function is taken into account): do not affect
- contribution of any individual metabolic pathway to total clearance [2]: ≤ 10%
- inter- and intra-subject variability in clearance and volume of distribution [2]: < 30%
- metabolism by CYP3A4 (CYP3A4/5) (share of clearance) [2]: < 10%
- renal clearance as share of total clearance [2]: approximately 50%
- Renal clearance ([2]; healthy subjects): about 10.7 ± 3.00 L/h
- metabolism by CES1 (share of clearance) ([2]; human-specific metabolite): < 10%
- CL total body clearance [2, 8]: approximately 22 L/h
- V ss steady-state volume of distribution [2, 8]: approximately 107 L
- V z volume of distribution based on the terminal phase [2, 8]: 205 ± 64.8 L
- CL total body clearance ([2]; intravenous 30 mg, healthy subjects, listed as Edoxaban): 21.8 ± 3.03 L/h
- dose–exposure relationship ([2]; healthy subjects): approximately dose proportional; also recorded: slightly less-than-dose-proportional
- dose–exposure relationship ([2]; healthy subjects, listed as Edoxaban): generally linear and dose-proportional
- terminal elimination half-life ([2]; oral, healthy subjects): 10 to 14 h
- CLR (oral) ([2]; single oral dose of edoxaban 60 mg, healthy subjects, N = 32): 9.95 ± 2.32^a L/h
- AUC∞ (oral) [2, 9]: 1766 ± 435.3 ng·h/mL
- C max (oral) [2, 9]: 256 ± 87.7 ng/mL
- t ½ (oral) [2, 9]: 11.5 ± 5.63 h
- t max (oral) ([2]; single oral dose of edoxaban 60 mg, healthy subjects, median [minimum–maximum]): 1.02 [0.500–3.00] h
- rebound effect following cessation of dosing [3]: no evidence of a rebound effect
- substrate of OCT2 (OCT2): is not a substrate
- IC50 (OAT3 [4]): ≥ 100 µM
- substrate of the efflux transporter P-gp (P-glycoprotein (P-gp)): is a substrate
- reduction of renal clearance of edoxaban [5]: 17%
- partition in blood [6]: 46%
- substrate of OAT3 (OAT3 [7]): is not a substrate
- substrate of OATP1B1 (OATP1B1): is not a substrate
- permeability in Caco-2 cells (Caco-2 cells): poor
